How the values were obtained:
Assay type in all cases: in vivo
rapeseed = test: Test Example 4: effect on crop by soil treatment (symbol g); conditions: for g: rapeseed, effect on crop grade: application herbicide amount 320 g/ha
Method in brief: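 Seeds were sown in spots on sterilized diluvial soil in a plastic box and covered with about 1.5 cm of soil. Plants were then grown in a greenhouse at 25° C. to 30° C.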

corn [1] = test: Test Example 5: effect on crop by foliage application, plastic box (symbol c); conditions: 320 g/ha, 3 weeks after application
Method in brief: (§1)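 A greenhouse held between 25° C. and 30° C. was used to grow plants sown spot-wise, beneath ~1.5 cm of soil, in boxes of sterilized diluvial soil.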

Monochoria vaginalis [2] = test: Test Example 1: herbicidal activity, application before weed generation in submerged conditions (symbol C); conditions: application herbicide amount 320 g/ha
Method in brief: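 Compound emulsion was diluted to a set herbicide amount and applied to the water surface on the sowing day, into submerged (4 cm) alluvial-soil pots sown with mixed weed seeds and transplanted 2.5-leaf rice. Pots were held in a 25–30 °C greenhouse, and weeds were scored 0–5 by herbicidal ratio after 3 weeks.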

soybean = test: Test Example 5: effect on crop by foliage application, plastic box (symbol d); conditions: 320 g/ha, 3 weeks after application
Method in brief: as §1

Abutilon theophrasti = test: Test Example 4: herbicidal effect by soil treatment (symbol M)
Method in brief: (§2)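 Seeds were sown in sterilized diluvial soil, covered with about 1.5 cm of soil, and the soil surface was sprayed with a water-diluted emulsion of the compound at a predetermined rate. Plants grew in a greenhouse at 25° C. to 30° C.; effects were scored visually 3 weeks after application.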

corn [3] = test: Test Example 4: effect on crop by soil treatment (symbol c)
Method in brief: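 Steps: fill box with sterilized diluvial soil; sow seed spot-like; cover with ~1.5 cm soil; grow in greenhouse (25° C. to 30° C.).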

[4] = system: Echinochloa crus-galli var. crus-galli; test: Test Example 4: herbicidal effect by soil treatment (symbol H)
Method in brief: as §2

rice plant = test: Test Example 5: effect on crop by foliage application, plastic box (symbol b); conditions: 320 g/ha, 3 weeks after application
Method in brief: as §1

Scirpus juncoides = test: Test Example 2: herbicidal activity, application during weed generation in submerged conditions (symbol B); conditions: Table 23; application herbicide amount 320 g/ha; grade 0-5 by criteria of Test Example 1
Method in brief: (§3)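 Each pot contained alluvial soil under 4 cm of water with seeds of all three weeds sown together. Following growth at 25° C. to 30° C. to the one- to two-leaf stage, the floodwater received diluted emulsion at a predetermined amount; visual assessment followed at 3 weeks.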

Digitaria ciliaris = test: Test Example 4: herbicidal effect by soil treatment (symbol F)
Method in brief: as §2

Avena fatua = test: Test Example 4: herbicidal effect by soil treatment (symbol I)
Method in brief: as §2

Lolium multiflorum Lam. = test: Test Example 5: herbicidal effect by foliage application, plastic box (symbol K); conditions: 320 g/ha, 3 weeks after application
Method in brief: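 After sowing into sterilized diluvial soil and growing two weeks under glass at 25° C. to 30° C., seedlings receive a uniform foliar spray of diluted emulsion. Damage is judged visually three weeks on.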

Galium spurium = test: Test Example 4: herbicidal effect by soil treatment (symbol Q)
Method in brief: as §2

[5] = system: Echinochloa oryzacola Vasing.; test: Test Example 2: herbicidal activity, application during weed generation in submerged conditions (symbol A); conditions: Table 23; application herbicide amount 320 g/ha; grade 0-5 by criteria of Test Example 1
Method in brief: as §3

Monochoria vaginalis [6] = test: Test Example 2: herbicidal activity, application during weed generation in submerged conditions (symbol C); conditions: Table 23; application herbicide amount 320 g/ha; grade 0-5 by criteria of Test Example 1
Method in brief: as §3

Chenopodium album = test: Test Example 4: herbicidal effect by soil treatment (symbol O); conditions: application herbicide amount 320 g/ha
Method in brief: as §2

Apera spica-venti = test: Test Example 4: herbicidal effect by soil treatment (symbol L); conditions: application herbicide amount 320 g/ha
Method in brief: as §2

[7] = application herbicide amount 320 g/ha

| SMILES | Herbicidal effect grade, C: Monochoria vaginalis (Monochoria vaginalis [2]) | Herbicidal effect grade, B: Scirpus juncoides (Scirpus juncoides) | Herbicidal effect grade, A: Echinochloa oryzacola Vasing. [5] | g: rapeseed, effect on crop grade (rapeseed) | Herbicidal effect grade, C: Monochoria vaginalis (Monochoria vaginalis [6]) | c: corn, effect on crop grade (corn [1]) | d: soybean, effect on crop grade (soybean) | M: Abutilon theophrasti, herbicidal effect grade (Abutilon theophrasti; [7]) | c: corn, effect on crop grade (corn [3]; [7]) | H: Echinochloa crus-galli var. crus-galli, herbicidal effect grade [4, 7] | b: directly sowed rice plant, effect on crop grade (rice plant) | O: Chenopodium album, herbicidal effect grade (Chenopodium album) | L: Apera spica-venti, herbicidal effect grade (Apera spica-venti) | F: Digitaria ciliaris, herbicidal effect grade (Digitaria ciliaris; [7]) | I: Avena fatua, herbicidal effect grade (Avena fatua; [7]) | K: Lolium multiflorum Lam., herbicidal effect grade (Lolium multiflorum Lam.) | other results |
| --- | --- | --- | --- | --- | --- | --- | --- | --- | --- | --- | --- | --- | --- | --- | --- | --- | --- |
| CON=C(C)CC1CC(OS(=O)(=O)CCCCl)=C(c2c(C)cc(C)cc2C)C1=O (centres unmarked) [1-142] | 2 (Herbicidal ratio of 20% or higher and lower than 40%) | 4 (Herbicidal ratio of 70% or higher and lower than 90%) | 5 (Herbicidal ratio of 90% or more (almost completely withered)) |  |  |  |  |  |  |  |  |  |  |  |  |  | g: rapeseed, effect grade on crop (rapeseed; 320 g/ha): 3 (Herbicidal ratio of 40% or higher and lower than 70%); c: corn, effect on crop (criteria 0-5) (corn [1]): 5 (Herbicidal ratio of 90% or more (almost completely withered)); d: soybean, effect on crop (criteria 0-5) (soybean): 3 (Herbicidal ratio of 40% or higher and lower than 70%); M: Abutilon theophrasti, herbicidal effect grade (Abutilon theophrasti; 320 g/ha): 0 (Herbicidal ratio of 5% or lower (almost no effect)); c: corn, effect grade on crop (corn [3]; 320 g/ha): 0 (Herbicidal ratio of 5% or lower (almost no effect)); H: Echinochloa crus-galli var. crus-galli, herbicidal effect grade ([4]; 320 g/ha): 5 (Herbicidal ratio of 90% or more (almost completely withered)); b: directly sowed rice plant, effect on crop (criteria 0-5) (rice plant): 5 (Herbicidal ratio of 90% or more (almost completely withered)); F: Digitaria ciliaris, herbicidal effect grade (Digitaria ciliaris; 320 g/ha): 5 (Herbicidal ratio of 90% or more (almost completely withered)); I: Avena fatua, herbicidal effect grade (Avena fatua; 320 g/ha): 3 (Herbicidal ratio of 40% or higher and lower than 70%); K: Lolium multiflorum Lam., herbicidal effect (criteria 0-5) (Lolium multiflorum Lam.): 5 (Herbicidal ratio of 90% or more (almost completely withered)); Q: Galium spurium, herbicidal effect grade (Galium spurium; 320 g/ha): 0 (Herbicidal ratio of 5% or lower (almost no effect)) |
| CON=C(C)CC1CC(O)=C(c2c(C)cc(-c3ccc(Cl)cc3)cc2C)C1=O (mixture of isomers) [6-029] | 3 (Herbicidal ratio of 40% or higher and lower than 70%) | 3 (Herbicidal ratio of 40% or higher and lower than 70%) | 5 (Herbicidal ratio of 90% or more (almost completely withered)) | 2 (Herbicidal ratio of 20% or higher and lower than 40%) | 2 (Herbicidal ratio of 20% or higher and lower than 40%) | 5 (Herbicidal ratio of 90% or more (almost completely withered)) | 0 (Herbicidal ratio of 5% or lower (almost no effect)) | 0 (Herbicidal ratio of 5% or lower (almost no effect)) | 2 (Herbicidal ratio of 20% or higher and lower than 40%) | 5 (Herbicidal ratio of 90% or more (almost completely withered)) | 5 (Herbicidal ratio of 90% or more (almost completely withered)) | 3 (Herbicidal ratio of 40% or higher and lower than 70%) | 5 (Herbicidal ratio of 90% or more (almost completely withered)) | 5 (Herbicidal ratio of 90% or more (almost completely withered)) | 4 (Herbicidal ratio of 70% or higher and lower than 90%) | 5 (Herbicidal ratio of 90% or more (almost completely withered)) |  |
| CON=C(C)CC1CC(OC(=O)OC)=C(c2c(C)cc(C)cc2C)C1=O (centres unmarked) [1-014] | 2 (Herbicidal ratio of 20% or higher and lower than 40%) | 3 (Herbicidal ratio of 40% or higher and lower than 70%) | 5 (Herbicidal ratio of 90% or more (almost completely withered)) |  | 3 (Herbicidal ratio of 40% or higher and lower than 70%) | 5 (Herbicidal ratio of 90% or more (almost completely withered)) | 5 (Herbicidal ratio of 90% or more (almost completely withered)) |  |  |  | 5 (Herbicidal ratio of 90% or more (almost completely withered)) |  |  |  |  | 5 (Herbicidal ratio of 90% or more (almost completely withered)) | M (Abutilon theophrasti) herbicidal effect grade (Abutilon theophrasti; [7]): 4 (Herbicidal ratio of 70% or higher and lower than 90%); c (corn) effect on crop grade (corn [3]; [7]): 4 (Herbicidal ratio of 70% or higher and lower than 90%); H (Echinochloa crus-galli var. crus-galli) herbicidal effect grade [4, 7]: 5 (Herbicidal ratio of 90% or more (almost completely withered)); L (Apera spica-venti) herbicidal effect grade (Apera spica-venti): 5 (Herbicidal ratio of 90% or more (almost completely withered)); F (Digitaria ciliaris) herbicidal effect grade (Digitaria ciliaris; [7]): 5 (Herbicidal ratio of 90% or more (almost completely withered)); I (Avena fatua) herbicidal effect grade (Avena fatua; [7]): 5 (Herbicidal ratio of 90% or more (almost completely withered)); Q (Galium spurium) herbicidal effect grade (Galium spurium; [7]): 5 (Herbicidal ratio of 90% or more (almost completely withered)) |
| CCOC(=O)C(C(=O)Cc1ccccc1)C1CC(O)=C(c2c(C)cc(C)cc2C)C1=O (centres unmarked) [2-011] | 0 (Herbicidal ratio of 5% or lower (almost no effect)) | 0 (Herbicidal ratio of 5% or lower (almost no effect)) | 0 (Herbicidal ratio of 5% or lower (almost no effect)) | 0 (Herbicidal ratio of 5% or lower (almost no effect)) | 0 (Herbicidal ratio of 5% or lower (almost no effect)) | 0 (Herbicidal ratio of 5% or lower (almost no effect)) | 0 (Herbicidal ratio of 5% or lower (almost no effect)) | 0 (Herbicidal ratio of 5% or lower (almost no effect)) | 0 (Herbicidal ratio of 5% or lower (almost no effect)) | 0 (Herbicidal ratio of 5% or lower (almost no effect)) | 3 (Herbicidal ratio of 40% or higher and lower than 70%) | 0 (Herbicidal ratio of 5% or lower (almost no effect)) | 0 (Herbicidal ratio of 5% or lower (almost no effect)) | 0 (Herbicidal ratio of 5% or lower (almost no effect)) | 0 (Herbicidal ratio of 5% or lower (almost no effect)) | 2 (Herbicidal ratio of 20% or higher and lower than 40%) |  |
| CCCC(=O)CC1CC(O)=C(c2c(C)cc(C)cc2C)C1=O (centres unmarked) [2-021] | 2 (Herbicidal ratio of 20% or higher and lower than 40%) | 2 (Herbicidal ratio of 20% or higher and lower than 40%) | 5 (Herbicidal ratio of 90% or more (almost completely withered)) | 1 (Herbicidal ratio of 5% or higher and lower than 20%) | 1 (Herbicidal ratio of 5% or higher and lower than 20%) | 3 (Herbicidal ratio of 40% or higher and lower than 70%) | 0 (Herbicidal ratio of 5% or lower (almost no effect)) | 1 (Herbicidal ratio of 5% or higher and lower than 20%) | 1 (Herbicidal ratio of 5% or higher and lower than 20%) | 4 (Herbicidal ratio of 70% or higher and lower than 90%) | 4 (Herbicidal ratio of 70% or higher and lower than 90%) | 0 (Herbicidal ratio of 5% or lower (almost no effect)) | 0 (Herbicidal ratio of 5% or lower (almost no effect)) | 5 (Herbicidal ratio of 90% or more (almost completely withered)) | 0 (Herbicidal ratio of 5% or lower (almost no effect)) | 5 (Herbicidal ratio of 90% or more (almost completely withered)) |  |

— patent US11000033B2, “Ketone or oxime compound, and herbicide” (NISSAN CHEMICAL CORPORATION, priority 2014, dated 2021)
